Key:
[1] = Dissolution of Apixaban in non-halogen organic solvents; format: physicochemical; details: 25 mg Apixaban in 1 mL of each of ethyl acetate, ethyl formate, methyl propionate, ethanol; stirred
Procedure: 25 mg of Apixaban was added to 1 mL of each of ethyl acetate, ethyl formate, methyl propionate, and ethanol and stirred. As a result, it was confirmed that Apixaban was not dissolved in the four organic solvents (FIG. 1).

[2] = Dissolution of Apixaban in halogen organic solvent (dichloromethane); format: physicochemical; details: 25 mg Apixaban in 1 mL dichloromethane, after 12 hours
Procedure: 25 mg of Apixaban was dissolved in 1 mL, of dichloromethane, and the mixture was photographed after 12 hours.

[3] = oral administration; cited from earlier work

Dissolution of Apixaban in non-halogen organic solvents [1]: not dissolved
Dissolution / recrystallization of Apixaban in dichloromethane [2]: Apixaban crystals were formed
SMILES: COc1ccc(-n2nc(C(N)=O)c3c2C(=O)N(c2ccc(N4CCCCC4=O)cc2)CC3)cc1 [Apixaban]
bioavailability [3]: about 50%

Reference: patent US12414919B2, “Method for preparing biocompatible polymer-based apixaban-loaded microspheres” (HLB PHARMACEUTICAL CO., LTD., priority 2019, dated 2025)
